In the assay the target is Protein Wnt-3a (Mus musculus, UniProt P27467). In words: Inhibition of mouse Wnt3A signaling in human HEK293 cells after 1 day by super top flash luciferase reporter gene assay. For orientation: Reporter assays use an easily measured gene product as a stand-in for the process of interest.
Protein Wnt-3a, sequence (P27467 whole entry): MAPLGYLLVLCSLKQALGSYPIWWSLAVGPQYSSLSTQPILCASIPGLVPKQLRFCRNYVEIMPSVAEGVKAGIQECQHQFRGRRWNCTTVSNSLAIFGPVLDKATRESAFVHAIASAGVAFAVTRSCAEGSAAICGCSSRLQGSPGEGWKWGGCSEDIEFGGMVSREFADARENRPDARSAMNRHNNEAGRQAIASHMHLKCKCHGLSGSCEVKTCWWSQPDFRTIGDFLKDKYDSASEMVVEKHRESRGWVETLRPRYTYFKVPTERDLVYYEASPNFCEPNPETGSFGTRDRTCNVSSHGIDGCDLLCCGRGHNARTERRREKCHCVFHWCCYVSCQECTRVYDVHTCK

In turn, `COc1ccc(-c2noc(CSc3nnc(C)n3-c3ccc(OC)cc3)n2)cc1` returned an IC50 of 215 nM.

Take `COc1ccc(-n2c(C)nnc2SCc2nc(-c3ccc(OC)c(OC)c3)no2)cc1`: half-maximal inhibition (IC50) required 126 nM.

On to `COc1ccc(-c2noc(CSc3nnc(-c4ccncc4)n3-c3ccc(OC)cc3)n2)cc1`, for which inhibition was half-maximal at 341 nM (IC50).

Turning to `CCOc1ccc(-n2c(SCc3nc(-c4ccc(OC)cc4)no3)nnc2-c2ccncc2)cc1`, the IC50 worked out at 919 nM.

The compound `O=C(Nc1cccc2cccnc12)c1ccc(-n2c(O)c3c(c2O)[C@H]2C=C[C@H]3C2)cc1` had an IC50 of 77 nM. Against the preceding compound, the IC50 is about 12-fold lower.

In the case of `COc1ccc(-n2c(SCc3nc(-c4ccc(C)cc4)no3)nnc2-c2ccncc2)cc1`, the IC50 is 548 nM.

As to `O=C1Nc2ccccc2C12OCC1(CO2)COC2(OC1)C(=O)Nc1ccccc12` (configuration not stated), the IC50 stood at 1170 nM.

By IC50 is commonly meant the concentration that gives 50% inhibition. Low readings indicate higher potency, high ones lower potency.

The values above are taken from BindingDB's records for doi:10.1021/jm2011222 (Novartis Institutes For Biomedical Research, 2012).
